Laboratory results reported in ChEMBL document CHEMBL1133339, “Leukotriene B4 photoaffinity probes: design, synthesis and evaluation of new arylazide-1,3-disubstituted cyclohexanes” (Bioorg Med Chem Lett, 2000).

Target: Leukotriene B4 receptor 1 (Homo sapiens, UniProt Q15722)
Assay: Compound was tested for inhibition against binding of radioligand [3H]LTB4 to Leukotriene B4 receptor in human neutrophil membranes
Type: cell membranes

Chain of Leukotriene B4 receptor 1 (Q15722 whole entry): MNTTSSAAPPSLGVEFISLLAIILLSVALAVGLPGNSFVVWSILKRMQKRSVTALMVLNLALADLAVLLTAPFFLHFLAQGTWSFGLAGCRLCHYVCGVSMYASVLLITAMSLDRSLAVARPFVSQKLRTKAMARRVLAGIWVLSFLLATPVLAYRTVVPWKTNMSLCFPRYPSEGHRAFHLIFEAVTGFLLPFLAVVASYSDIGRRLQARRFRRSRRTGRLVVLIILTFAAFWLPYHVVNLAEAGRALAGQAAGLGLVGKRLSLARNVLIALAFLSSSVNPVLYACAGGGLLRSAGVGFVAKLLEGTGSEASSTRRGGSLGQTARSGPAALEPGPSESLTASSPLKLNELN

SMILES | IC50 [µM]
[N-]=[N+]=Nc1ccc(CCCCC(O)/C=C/C2CCCC(O)(CC(=O)O)C2)cc1 (stereo not drawn) | 2
[N-]=[N+]=Nc1ccc(CCCCC(O)/C=C/C2CCCC(O)(CC(=O)O)C2)cc1I (stereo not drawn) | > 10
CN(C)C(=O)CC1(O)CCCC(/C=C/C(O)CCCCc2ccccc2)C1 (stereo not drawn) | 0.04
O=C(O)CC1(O)CCCC(/C=C/C(O)CCCCc2ccccc2)C1 (stereo not drawn) | 0.3
CN(C)C(=O)CC1(O)CCCC(/C=C/C(O)CCCCc2ccc(N=[N+]=[N-])cc2)C1 (stereo in doubt) | 0.7
CN(C)C(=O)CC1(O)CCCC(/C=C/C(O)CCCCc2ccc(N=[N+]=[N-])c(I)c2)C1 (stereo in doubt) | 6
CN(C)C(=O)CC1(O)CCCC(/C=C/C(O)CCCCc2ccc(N=[N+]=[N-])cc2)C1 (stereo in doubt; 4b) | 2
CN(C)C(=O)CC1(O)CCCC(/C=C/C(O)CCCCc2ccc(N=[N+]=[N-])c(I)c2)C1 (stereo in doubt; 6b) | > 10
